Measurements reported in patent US20250305023A1, “MEASUREMENT OF PERMEATION OF SMALL MOLECULES INTO GRAM NEGATIVE BACTERIA” (University of Virginia Patent Foundation, priority 2022, published 2025).
pEC50: −log10 of the molar value. Values after ≈ are worked out from the molar mass of the structure shown.

Columns and labels:
E. coli = assay: Minimum Inhibitory Concentration; assay type: cell-based, Escherichia coli; conditions: for MIC: Escherichia coli, 24 h, 37° C., MH media
Procedure: For all biological assays, laboratory strains of wild type E. coli (ATCC 25922), and K12 E. coli strains BL21(DE3) and E. coli Lemo21(DE3) were grown with shaking at 37° C. overnight from freezer glycerol stocks in 5 mL of Luria Broth (LB) media.
Minimum Inhibitory Concentration. Compounds were serially diluted 2-fold from stock solutions to yield 12 test concentrations in U-bottom, 96-well plates. Overnight cultures were used to inoculate LB media 1:100 and regrown to exponential phase, as determined by optical density recorded at 600 nm (OD600). All cultures were diluted again to ca. 10^6 CFU/mL in MH media, and 100 μL was inoculated into each well of a U-bottom 96-well plate (BD Biosciences, BD 351177) containing 100 μL of compound solution (in line with CLSI Standards).^4Plates were incubated statically at 37° C. for 24 h upon which time wells were evaluated visually for bacterial growth. The MIC was determined as the lowest concentration of compound resulting in no bacterial growth visible to the naked eye, based on the majority of three independent experiments. Growth and sterility controls were conducted for each plate.

E. coli outer membrane = assay: Outer membrane disruption: co-treatment with R110cl in BaCAPA; assay type: cell-based, Escherichia coli; conditions: for cellular fluorescence on co-incubation with R110cl: various concentrations, 5 μM R110cl, FIG. 3A/3B
Source text: It is well appreciated that the OM is the major barrier to the permeation of small molecules.^28 Considerable efforts have been devoted to the discovery of molecules that disrupt the OM barrier as antibiotic adjuvants with the goal of potentiating them and/or circumventing resistance.^29-31 Therefore, these agents hold the promise of synergistically enhancing the permeation of potential antibiotics in a broad and, potentially, impactful way.
While there was a decrease in signal-to-noise, the signal strength in the presence of IPTG was well above that in the absence of IPTG.
Polymyxin nonapeptide (PMBN) mediated bacterial chloroalkane-tagged molecule penetration. For the PMBN-mediated penetration assay, 25 μL of the desired PMBN concentration was added into the wells of a 96-well plate at 3× the final concentration along with 25 μL of the HaloTag protein cell suspension (both IPTG induced and non-induced cells). Next, 25 μL of the serially diluted samples of the chloroalkane-tagged test molecule was added into the wells at 3× the desired final concentration, in quadruplicate. The plates were incubated at 37° C. with shaking at 250 RPM. After 30 min, the plate was centrifuged to pellet the cells using a Jouan C4i centrifuge (Thermofisher Scientific). The supernatant was discarded, and the pellet was washed twice with PBS. The chase step followed by addition into each test well, 50 μL of […] chloroalkane-tagged rhodamine 110 and incubated for 30 min at 37° C. with shaking in a shaker incubator at 250 RPM. The plate was centrifuged to pellet the cells and cells were washed three times with PBS and fixed with 4% formaldehyde by incubating at room temperature for 30 min. The cells were analyzed by flow cytometry on the Attune NXT Acoustic Focusing Cytometer (Invitrogen) by exciting using the blue laser ([…]).

[1] = tested on: E. coli expressing HaloTag; assay: Bacterial ChloroAlkane Penetration Assay (BaCAPA) pulse-chase, flow cytometry; assay type: cell-based, Escherichia coli; conditions: for pEC50: Escherichia coli, pulse with chloroalkane-tagged molecule, IPTG induced, flow cytometry, read-out: EC50 (apparent accumulation/permeation, BaCAPA)
Source text: This method relies on the genetically encoded HaloTag^24, a mutant form of a bacterial haloalkane dehalogenase that facilitates covalent bond formation with chloroalkane-linked ligands (FIG. 1). […] The assay is based on the expression of the HaloTag protein inside bacterial cells, which are exposed to molecules of interest linked to a chloroalkane tag. If the molecules reach the HaloTag proteins inside the bacteria, they will be covalently bound to the protein. This pulse step is followed by a chase step with a fluorophore-linked chloroalkane. […] Conversely, when a large fraction of molecules of interest permeate the cell membranes and reach the HaloTag proteins, there will be reduced sites available to react with the fluorophore.
In some embodiments, the BaCAPA process can report on apparent accumulation of small molecules past the cellular envelope. In these embodiments, (non-fluorescent) small molecules modified with the chloroalkane are incubated with the bacterial cells expressing HaloTag first (pulse step), which is then followed by a treatment step with the dye R110cl (chase step).
HaloTag Protein Expression: Cytoplasmic HaloTag protein. For expression of the HaloTag protein in E. coli, HaloTag expression plasmid Cyto_Halo_pET21(b)+ was transformed into E. coli BL21(DE3) and grown on an LB/agar plate with ampicillin (100 μg/mL) at 37° C. overnight. Colonies were picked and grown in 5 mL LB broth with ampicillin at 37° C. overnight. A culture tube containing 2 mL LB media was inoculated with the overnight culture at a ratio of 1:100 and cells were grown at 37° C. for 3 h hours, or until the optical density at 600 nm reached 0.6. Cultures were induced with 1 mM Isopropyl β-d-1-thiogalactopyranoside (IPTG) at 37° C. for 2 hours in a shaker incubator, and then pelleted at 4,000 rpm for 3 min in an HERAEUS Multicentrifuge X1 centrifuge (Thermofisher Scientific). The pellet was washed three times with 1×PBS pH 7.2 following which cells were ready for assaying. The identity of the protein was confirmed by SDS-PAGE.
BaCAPA Pulse-Chase Protocol (chloroalkane-tagged molecule, chloroalkane-tagged dye). For a bacterial chloroalkane penetration assay (BaCAPA), 25 μL of serially diluted samples of the chloroalkane-tagged test molecule, in quadruplicate, were transferred into a 96-well plate at 2× of the desired concentration. The pellet obtained from the washing step above was resuspended in 2 mL of 1×PBS by vortexing thoroughly. […]

[2] = tested on: E. coli expressing HaloTag; assay: BaCAPA control: labeling with chloroalkane-tagged dye; assay type: cell-based, Escherichia coli; conditions: 5 μM dye, compared with R110cl, FIG. 2C
Procedure: In an embodiment, fluorescence levels were determined in bacterial cells that express HaloTag proteins in the cytosol by encoding the protein on an inducible plasmid. Bacterial cells carrying the HaloTag-expressing plasmid were grown to mid-log, induced with isopropyl-β-D-1-thiogalactopyranoside (IPTG), and incubated with a fluorophore modified chloroalkane. Cytosolic HaloTag promotes the formation of a covalent bond with the fluorophore-linked chloroalkane tail (FIG. 2A). Total labeling levels of bacterial cells is then quantified using flow cytometry. In a first step in the BaCAPA, bacterial cells were treated with Rhodamine 110 modified with chloroalkane (R110cl). […] Appreciating that the fluorophore itself could be subject to the same barrier elements that are inherent to E. coli, there was also evaluated the labeling of bacterial cells with a smaller fluorophore, namely coumarin (COMcl). […] While it was clear that coumarin could also covalently modify HaloTag-expressing bacterial cells, the relative fluorescence increase was more modest in cells treated with COMcl (FIG. 2C). […]
To empirically establish the dye concentration that optimizes the signal output for the assay, bacterial cells were treated with a range of R110cl concentrations (FIG. 2D). […] HaloTag labeling with R110cl can be analyzed from the whole cellular proteome because of the selectivity of this enzymatic reaction. […]

O=C(NCCOCCOCCCCCCCl)c1cn(C2CC2)c2cc(N3CCNCC3)c(F)cc2c1=O [Compound 8, Ciprofloxacin-carboxy-HaloTag amide]
MIC (E. coli): 4 µg/mL (≈ 7.45 µM)
increase of MIC value (E. coli; relative to derivatives 6 and 7): 8 fold

polymyxin B nonapeptide [PMBN]
cellular fluorescence relative to cells not treated with PMBN (E. coli outer membrane; 10 μM of PMBN, co-treatment with R110cl): double
cellular fluorescence on co-incubation with R110cl (E. coli outer membrane): concentration-dependent increase in cellular fluorescence
bacterial viability (E. coli cells): no loss of bacterial viability

C[N+](C)(C)CC(=O)NCCOCCOCCCCCCCl [Compound 5, HaloTag-betainamide]
relative accumulation in E. coli ([1]; methylation series of amino group, FIG. 4A): statistically significant lowered accumulation level

O=C(CCC(=O)N1CCN(c2cc3c(cc2F)c(=O)c(C(=O)O)cn3C2CC2)CC1)NCCOCCOCCCCCCCl [Compound 6]
pEC50 ([1]; chase with 5 μM R110cl): 4.37
MIC (E. coli): 0.5 µg/mL (≈ 0.785 µM)

O=C(CN1CCN(c2cc3c(cc2F)c(=O)c(C(=O)O)cn3C2CC2)CC1)NCCOCCOCCCCCCCl [Compound 7]
MIC (E. coli): 0.5 µg/mL (≈ 0.84 µM)

Clc1cccc(CN=C2Nc3ccccc3NC23CCNCC3)c1 [liproxstatin]
cellular fluorescence on co-incubation with R110cl (E. coli outer membrane): increase in cellular fluorescence

Cl.NCCOCCOCCCCCCCl [Compound 1, 2-(2-((6-Chlorohexyl)oxy)ethoxy)ethanamine hydrochloride]
pEC50 ([1]; chase with 5 μM R110cl): ~5.30
concentration at which nearly background fluorescence levels were observed ([1]; concentration scan, chase with 5 μM R110cl): 12 µM

Cc1c(CC(=O)NCCOCCOCCCCCCCl)c(=O)oc2cc(N)ccc12 [COMcl]
relative fluorescence increase in HaloTag-expressing cells [2]: more modest
